{"source": "paper PMC3769177", "about": "(Bioorganic & medicinal chemistry letters, 2013)", "tested_on": "RD (embryonal) rhabdomyosarcoma cell line", "assay": "CellTiter-Glo Luminescent Cell Viability Assay, RD cells", "assay_type": "cell-based", "conditions": "48 hours"}
{"smiles": "CN1CCN(CCOc2cc(OC3CCOCC3)c3c(Nc4c(Cl)ccc5c4OCO5)ncnc3c2)CC1", "note": "[Saracatinib]", "values": [{"measurement": "IC50[RD], inhibition of cell survival", "value": "did not reach the IC50"}]}
